Measurements taken from ChEMBL document CHEMBL5724558, “Image-based profiling of drug vulnerabilities in CRC organoids” (2024).
Values joined by “and” are separate entries in the source; they are usually repeats but may differ in a detail not shown here. Equal entries are not always repeated.

Tests used:
Assay type in all cases: functional, Homo sapiens
Set-up in all cases: dose or concentration left out as unconfirmed
Colon cancer organoid [1] = assay: (§1) Image-based profiling of donated chemical probes and chemogenomic kinase set in O21 CRC organoid. Image analysis is performed on the sum area metric, and the data were normalized to the DMSO control. After imaging the organoid viability is measured using the OneGloEX Luciferase Assay System. The normalized viability data and sum area are reported.
Colon cancer organoid [2] = assay: as §1, with “O06” for “O21”
Colon cancer organoid [3] = assay: as §1, with “O09” for “O21”

Compound | Cell Viability (Colon cancer organoid [1]; Replication number 1) | Cell Viability (Colon cancer organoid [1]; Replication number 2) | Cell Viability (Colon cancer organoid [2]; Replication number 2) | Cell Viability (Colon cancer organoid [3]; Replication number 1) | Cell Viability (Colon cancer organoid [3]; Replication number 2) | Cell Viability (Colon cancer organoid [2]; Replication number 1)
CNCc1ccccc1-c1csc([C@@H](C)Nc2nc(C)nc3cc(OC)c(OC)cc23)c1 [BAY-293] | 45.2566% and 84.9935% | 50.5698% and 76.0204% | 9.059% and 19.7098% | 109.186% and 103.451% | 63.3306% and 79.153% | 
CCC(F)(F)c1cc(N2CCC(S(C)(=O)=O)CC2)nc2sc(C(N)=O)c(N)c12 [BI-605906] | 102.215% and 104.22% | 98.7028% and 111.659% | 81.7833% and 117.011% | 110.631% and 99.0371% | 105.468% and 104.877% | 130.001% and 116.599%
CCOC(=O)CCNc1cc(N2CCc3ccccc3CC2)nc(-c2ccccn2)n1 | 97.5264% and 129.915% | 84.038% and 100.955% | 153.418% and 113.038% | 78.8625% and 87.8671% | 139.531% and 105.195% | 148.439% and 134.336%
Cc1ccc(C(=O)Nc2cccc(C(F)(F)F)c2)cc1Nc1nc(-c2cccnc2)nc2c1cnn2C | 58.179% and 60.2091% | 55.1529% and 56.0201% | 93.5249% and 94.6015% | 119.681% and 88.2655% | 229.025% and 116.079% | 111.788% and 111.949%
CN1CCN(C(=O)C(C)(C)c2ccc(C(=O)Nc3cn4cc(-c5cc(C(C)(C)C)cc(C(C)(C)C)c5)ccc4n3)cc2)CC1 [T3-CLK-N] | 88.9475% and 97.2186% | 93.8303% and 107.653% | 96.9336% and 98.0752% | 89.0201% and 93.1776% | 119.23% and 117.123% | 75.6351% and 77.2834%
CC1(C)C(N)=Nc2cc(OCCCN3Cc4ccc(OCCc5cn(CC(=O)N6CCC(CCN7CCCC7)CC6)nn5)cc4C3)c(OCC3CC3)cc21 | 89.3796% and 92.2926% | 86.2982% and 98.2697% | 138.652% and 115.905% | 116.392% and 79.0572% | 168.88% and 116.313% | 159.496% and 131.919%
CCCS(=O)(=O)c1cc(NC2CC2)nc(-c2ccc3c(ccn3C3CC(C)(C)NC(C)(C)C3)c2)n1 | 82.8925% and 103.462% | 85.2127% and 87.5298% | 87.7215% and 108.975% | 103.467% and 88.0989% | 115.748% and 108.331% | 40.3908% and 48.3221%
CCC(=O)N[C@@H]1CC[C@H](C(=O)N(C)c2ccc(-c3nc4ccccc4o3)cc2)C1 [BI 99990] | 98.1271% and 82.0828% | 97.1544% and 80.6122% | 112.935% and 105.893% | 148.115% and 99.6283% | 106.898% and 85.8708% | 114.692% and 101.874%
Cl.Cl.Cl.c1ccc(N2CCN(Cc3nc4ccccc4[nH]3)CC2)nc1 | 123.058% and 103.622% | 81.1139% and 93.8775% | 106.955% and 116.079% | 118.127% and 116.353% | 87.0048% and 88.7915% | 75.342% and 94.3794%
Cn1cc(-c2ccc3occ(-c4ccccc4-c4ccccc4)c3n2)cn1 | 120.62% and 121.278% | 112.27% and 102.009% | 79.1768% and 87.7674% | 118.722% and 95.2756% | 122.009% and 96.5129% | 113.014% and 144.526%
CCOC(=O)c1c(/C(C#N)=C\N)c2ccc(Cl)c(Cl)c2n1C | 124.932% and 127.137% | 116.619% and 130.014% | 89.5184% and 120.135% | 79.2888% and 103.726% | 80.6301% and 101.308% | 68.8446% and 103.482%
Cc1c(N2CCNCC2)nc2ccc(Br)cc2c1C(=O)NC[C@H](CCC(=O)O)c1ccccc1Cl [BAY-403] | 86.0908% and 103.128% | 96.6508% and 95.8532% | 102.985% and 123.739% | 84.5203% and 109.166% | 120.857% and 102.102% | 84.3877% and 124.372%
CC1(C)C(N)=Nc2cc(OCCCCN3Cc4ccc(OCc5cn(CC(=O)N6CCC(CCN7CCCC7)CC6)nn5)cc4C3)c(OCC3CC3)cc21 | 75.5552% and 109.928% | 77.1471% and 105.251% | 69.8334% and 85.077% | 129.867% and 99.2272% | 184.968% and 121.159% | 120.738% and 74.8993%
CC(C)Oc1ccc(-c2nn([C@@H](C)c3oc4ccc(F)cc4c(=O)c3-c3cccc(F)c3)c3ncnc(N)c23)cc1F [UMBRALISIB] | 111.232% and 144.39% | 124.887% and 154.3% | 91.2943% and 112.494% | 196.172% and 129.157% | 74.9501% and 109.33% | 88.4125% and 133.76%
O=C1[C@H](Cc2ccc(O)cc2)N2C(=O)CCN(C(=O)NCc3ccccc3)[C@H]2CN1Cc1cccc2ccccc12 | 89.9628% and 92.2926% | 85.8858% and 90.2148% | 106.282% and 104.195% | 80.9835% and 70.711% | 121.345% and 94.0767% | 96.6982% and 93.2617%
CCN(Cc1ccc(Cl)cc1)c1ncc(C(=O)NCCCN2CCCC2=O)c(NC2CCCC2)n1 | 106.065% and 92.3751% | 124.526% and 113.344% | 114.236% and 99.6728% | 161.079% and 96.7604% | 165.307% and 110.619% | 89.2777% and 109.917%
CC(C)(C#Cc1ccc(NC(=O)COc2ccccc2C(=O)c2ccccc2)c(Cl)c1)C(=O)O [BI 2439] | 94.7659% and 113.344% | 112.811% and 119.578% | 69.7928% and 91.0899% | 115.901% and 103.937% | 114.023% and 92.0585% | 94.1417% and 101.057%
COc1cccc2c1C(=O)c1c(O)c3c(c(O)c1C2=O)CC(O)(C(=O)CO)CC3OC1CC(N)C(O)C(C)O1.Cl (centres undefined) | 24.67% and 46.8716% | 19.9524% and 41.0435% |  | 17.7261% | 21.2234% | 10.231% and 27.4494%
CC(C)S(=O)(=O)c1ccc2nccc(Nc3ccc4scnc4c3)c2c1 | 106.102% and 111.498% | 112.549% and 132.422% | 127.825% and 117.429% | 127.216% and 102.228% | 64.4509% and 80.9853% | 90.1117% and 127.973%
O=C(Nc1ccc(-c2ccnc(Nc3ccc(N4CCOCC4)cc3)n2)cc1)[C@@H]1CCCN1 | 122.386% and 130.453% | 118.022% and 143.361% | 82.4971% and 82.4679% | 74.06% and 64.3291% | 67.524% and 79.6356% | 113.887% and 133.092%
Cn1c(=O)[nH]c2cc(N3C(=O)c4cccc5c(CCCO)ccc(c45)C3=O)ccc21 | 119.202% and 111.104% | 123.504% and 100.955% | 114.692% and 105.151% | 172.196% and 101.777% | 101.158% and 94.3617% | 78.0892% and 58.7114%
Cn1nc(C(F)(F)F)cc1-c1cnc(N2CCc3cc(S(=O)(=O)Nc4c(F)cc(Cl)cc4F)cc(N4CCCC4=O)c32)nc1 [TP-020] | 100.4% and 89.0686% | 74.5209% and 80.6122% | 112.528% and 137.4% | 176.236% and 116.591% | 145.95% and 107.484% | 97.5497% and 105.152%
O=C(NCc1ncc(C(F)(F)F)cc1Cl)c1ccc2c(c1)C1(CCS(=O)(=O)CC1)[C@@H](C1CC1)N2S(=O)(=O)c1ccc(F)cc1 [BAY-786] | 89.1117% and 93.1436% | 89.1705% and 87.7551% | 92.4233% and 87.6518% | 144.169% and 104.407% | 144.169% and 145.747% | 93.4369% and 85.4801%
C[C@H](c1ccnc(Nc2nc3ccc(-c4cc(N(C)C)ncn4)cc3[nH]2)c1)N1CCN(C(=O)CC(F)(F)F)CC1 [BAY-985] | 79.4083% and 115.847% | 85.0487% and 108.163% | 122.693% and 118.685% | 71.2214% and 105.601% | 101.014% and 89.9598% | 90.8191% and 114.52%
CC(=O)Nc1c(C(C)=O)c(=O)n(C)c2nc(-c3ccc(Cl)cc3Cl)c(-c3ccc(Cl)cc3)cc12 [NAPHTHYRIDINONE] | 94.8536% and 101.294% | 91.9114% and 85.7143% | 103.77% and 94.7587% | 117.091% and 130.21% | 64.3844% and 79.7371% | 123.545% and 117.564%
C[C@@H]1CCN(C(=O)CC#N)C[C@@H]1N(C)c1ncnc2[nH]ccc12.O=C(O)CC(O)(CC(=O)O)C(=O)O [TOFACITINIB CITRATE] | 116.988% and 133.24% | 108.318% and 111.695% | 74.5746% and 82.0566% | 230.679% and 101.979% | 85.7625% and 94.2129% | 54.8894% and 73.0004%
